Experimental data from ChEMBL document CHEMBL3046426, “Analytical and biological characterization of quinazoline semicarbazone derivatives” (Med Chem Res, 2010).

Experiments:
Escherichia coli = assay: Antibacterial activity against Escherichia coli NCIM 2065 after 18 hr by disk diffusion method; type: functional; also: test concentration or dose not given here
Bacillus cereus = assay: Antibacterial activity against Bacillus cereus NCIM 2018 after 18 hr by disk diffusion method; type: functional; also: test concentration or dose not given here
Lederbergia lenta = assay: Antibacterial activity against Bacillus lentus NCIM 2018 after 18 hr by disk diffusion method; type: functional; also: test concentration or dose not given here
Proteus vulgaris = assay: Antibacterial activity against Proteus vulgaris NCIM 2239 after 18 hr by disk diffusion method; type: functional; also: test concentration or dose not given here
Candida albicans = assay: Antifungal activity against Candida albicans NCIM 0707 after 18 hr by disk diffusion method; type: functional; also: test concentration or dose not given here
[1] = Solubility of the compound in DMF; type: physicochemical
[2] = Solubility of the compound in acetic acid; type: physicochemical
Salmonella paratyphi = assay: Antibacterial activity against Salmonella enterica subsp. enterica serovar Paratyphi A NCIM […] after 18 hr by disk diffusion method; type: functional
[3] = Solubility of the compound in chloroform; type: physicochemical
[4] = Solubility of the compound in dilute acids; type: physicochemical
[5] = Solubility of the compound in DMSO; type: physicochemical
[6] = Solubility of the compound in water; type: physicochemical
[7] = Solubility of the compound in ethyl acetate; type: physicochemical
[8] = Solubility of the compound in benzene; type: physicochemical
Micrococcus luteus = assay: Antibacterial activity against Micrococcus luteus NCIM 2155 after 18 hr by disk diffusion method; type: functional; also: test concentration or dose not given here
Klebsiella aerogenes = assay: Antibacterial activity against Enterobacter aerogenesNCIM 2075 after 18 hr by disk diffusion method; type: functional, NCIM 2075; also: test concentration or dose not given here
Staphylococcus = assay: Antibacterial activity against Staphylococcus albus NCIM 2178 after 18 hr by disk diffusion method; type: functional; also: test concentration or dose not given here
[9] = Solubility of the compound in ethanol; type: physicochemical

Row | SMILES | diameter of the inhibition zone (DIZ) (Escherichia coli) [mm] | diameter of the inhibition zone (DIZ) (Bacillus cereus) [mm] | diameter of the inhibition zone (DIZ) (Lederbergia lenta) [mm] | diameter of the inhibition zone (DIZ) (Proteus vulgaris) [mm] | diameter of the inhibition zone (DIZ) (Candida albicans) [mm] | solubility [1] | solubility [2] | diameter of the inhibition zone (DIZ) (Salmonella paratyphi) [mm] | solubility [3] | solubility [4] | solubility [5] | solubility [6] | solubility [7] | solubility [8] | diameter of the inhibition zone (DIZ) (Micrococcus luteus) [mm] | diameter of the inhibition zone (DIZ) (Klebsiella aerogenes) [mm] | diameter of the inhibition zone (DIZ) (Staphylococcus) [mm] | solubility [9]
1 | COc1cc(/C=N/NC(=O)Nn2c(-c3ccccc3)nc3ccccc3c2=O)ccc1O | 19 | 14 | 18 | 16 | 21 | soluble | soluble | 15 | soluble | soluble | soluble | Insoluble | soluble | soluble | 15 | 16 | 13 | soluble
2 | O=C(N/N=C1/C(=O)Nc2ccccc21)Nn1c(-c2ccccc2)nc2ccccc2c1=O | 21 | 12 | 17 | 17 | 22 | soluble | soluble | 16 | soluble | soluble | soluble | Insoluble | soluble | soluble | 16 | 17 | 13 | soluble
3 | CC12CCC(C/C1=N/NC(=O)Nn1c(-c3ccccc3)nc3ccccc3c1=O)C2(C)C (centres undefined) | 18 | 14 | 17 | 17 | 20 | soluble | Insoluble | 15 | soluble | Insoluble | soluble | Insoluble | soluble | Insoluble | 14 | 16 | 12 | soluble
4 | O=C(NN=C(c1ccccc1)c1ccccc1)Nn1c(-c2ccccc2)nc2ccccc2c1=O | 21 | 15 | 17 | 16 | 25 | soluble | Insoluble | 16 | soluble | Insoluble | soluble | Insoluble | soluble | soluble | 12 | 15 | 10 | soluble
5 | CN(C)c1ccc(/C=N/NC(=O)Nn2c(-c3ccccc3)nc3ccccc3c2=O)cc1 | 19 | 17 | 18 | 18 | 21 | soluble | Insoluble | 15 | soluble | Insoluble | soluble | Insoluble | soluble | soluble | 16 | 17 | 16 | soluble
6 | O=C(O)c1cn(C2CC2)c2cc(N3CCNCC3)c(F)cc2c1=O [CIPROFLOXACIN] | 16 | 9 | 9 | 8 |  |  |  | 8 |  |  |  |  |  |  | 8 | 10 | 8 | 
7 | Clc1ccccc1C(c1ccccc1)(c1ccccc1)n1ccnc1 [CLOTRIMAZOLE] |  |  |  |  | 14 |  |  |  |  |  |  |  |  |  |  |  |  | 
